Legend:
Type in all cases: in vivo, C57BL/6 mice
[1] = test system: mouse acute kidney injury models; experiment: Mouse acute kidney injury model (folic acid); design: Havcr1 mRNA expression / Ngal mRNA expression / Tnf mRNA expression / Il1 mRNA expression / Il6 mRNA expression / α-Sma mRNA expression / Col1a1 mRNA expression / Tgfb1 mRNA expression: scale not given here; BUN (urea level in serum): unit not given here; conditions: for Scr (creatinine level in serum): in µmol/L (unit assumed); for Col1a1 mRNA expression / Havcr1 mRNA expression / Il1 mRNA expression / Il6 mRNA expression / Ngal mRNA expression / Tgfb1 mRNA expression / Tnf mRNA expression / α-Sma mRNA expression: kidney
Protocol: Acute kidney injury: The mice were randomly divided into 7 groups, one of which was randomly selected as the normal group, and the other 6 groups were the model group, the parent drug 1 (0.4 and 4 μmol/kg), the hydrochloride 22 (4 μmol/kg), and the fumarate 23 (0.4 and 4 μmol/kg) groups, respectively, with 6 mice in each group. In addition to the mice in the normal group, other mice were injected intraperitoneally with folic acid dissolved in 0.9% NaHCO3 solution (250 mg/kg) to establish mouse acute kidney injury models. 1 h before model establishment, the parent drug 1 (0.4 and 4 μmol/kg), the hydrochloride 22 (4 μmol/kg) and the fumarate 23 (0.4 and 4 μmol/kg) were administered intragastrically for 3 consecutive days. The mice in the normal group and model group were administered intragastrically the same volume of the solvent 0.5% CMC-Na.
1 h after the last administration, blood was collected from the venous plexus of fundus oculi, stood at room temperature for 2 h, and centrifuged at 3000 rpm for 20 min. The serum was aspirated, aliquoted, and frozen at −70° C. for subsequent use. After blood collection, the mice were sacrificed by cervical dislocation, and the abdominal cavity was opened. The kidneys were taken out, rinsed twice with pre-cooled PBS after the perirenal fats and capsules were peeled off, and then fixed with 4% paraformaldehyde for 24-48 h, embedded in paraffin and stained with HE. The remaining tissues were frozen at −70° C. for subsequent use.
μL serum was taken from each sample for the detection of creatinine and urea levels. Samples were added in accordance with the instructions of the kit strictly. After incubation at 37° C., the absorbance value was measured in a microplate reader, and the content levels of detection indicators in each group were calculated according to the standard curve.
The extraction of total RNA from animal tissues, cDNA synthesis and PCR amplification are as in above examples.

[2] = test system: mouse acute lung injury model; experiment: Mouse acute lung injury model (LPS), ELISA; conditions: title: serum (text b290: lung tissues)
Protocol: In addition to the normal group injected intragastrically with PBS, other mice were injected intraperitoneally with LPS (7.5 mg/kg) to establish acute lung injury models. Three days before model establishment, the parent drug 1 (0.4 and 4 μmol/kg), the hydrochloride 22 (0.4 and 4 μmol/kg), the fumarate 23 (0.4 and 4 μmol/kg) and the positive drug Dex (12 μmol/kg) were administered intragastrically in advance, and LPS (7.5 mg/kg) was injected intraperitoneally half an hour after administration on the third day.
abdominal cavity was opened. The lungs were taken out, and rinsed twice with pre-cooled PBS. […] The remaining tissues were frozen at −70° C. for subsequent use.
20 mg of lung tissues were accurately weighed, rinsed with pre-cooled PBS solution, cut into small pieces by ophthalmic surgical scissors, and put into a glass homogenizer, into which was added 180 μL PBS (containing 1 mM PMSF). The mixture was homogenized at 60 HZ for 180 s, and centrifuged at 3000 rpm/min at 4° C. for 20 min. 1 μL supernatant was taken, the protein concentration of which was measured with Nanodrop and leveled, and could be used for subsequent experiments.

CT26 cells = experiment: CT26 subcutaneous mouse xenograft model; conditions: 3 weeks
Protocol: CT26 cells were cultured and amplified in vitro. Appropriate amount of the cells in logarithmic growth phase were resuspended in a suspension of a serum-free RPMI 1640 medium and Matrigel (1:1) to prepare a cell suspension in 5×10^5/100 μL under sterile conditions. 100 μL of the cell suspension was subcutaneously inoculated into the armpits of the front left limbs of male C57BL/6 mice with a syringe. When the tumor volume grew to 50-70 mm^3, animals with moderate tumor size were randomly divided into groups, with 5 animals in each group. […] The mice were administered intragastrically every day for 3 weeks. During the administration, the weights and tumor diameters of the mice were measured every day. After the experiment, the mice were sacrificed by cervical dislocation, and the tumors were taken and weighed. The formula for calculating a tumor volume (TV) is: TV=½×a×b2, where a represents the long diameter of a tumor; b represents the short diameter of a tumor.

Row | SMILES | BUN (urea level in serum) ([1]; 0.4 μmol/kg i.g.) | Scr (creatinine level in serum) ([1]; 0.4 μmol/kg i.g.) | BUN (urea level in serum) ([1]; 4 μmol/kg i.g.) | Scr (creatinine level in serum) ([1]; 4 μmol/kg i.g.) | Col1a1 mRNA expression ([1]; 0.4 μmol/kg) | Havcr1 mRNA expression ([1]; 0.4 μmol/kg) | Il1 mRNA expression ([1]; 0.4 μmol/kg) | Il6 mRNA expression ([1]; 0.4 μmol/kg) | Col1a1 mRNA expression ([1]; 4 μmol/kg) | Havcr1 mRNA expression ([1]; 4 μmol/kg) | Il1 mRNA expression ([1]; 4 μmol/kg) | Il6 mRNA expression ([1]; 4 μmol/kg) | Ngal mRNA expression ([1]; 4 μmol/kg) | Tgfb1 mRNA expression ([1]; 4 μmol/kg) | Tnf mRNA expression ([1]; 4 μmol/kg) | α-Sma mRNA expression ([1]; 4 μmol/kg) | IL-1β ([2]; 0.4 μmol/kg) [pg/mL] | IL-6 ([2]; 0.4 μmol/kg) [pg/mL] | IL-1β ([2]; 4 μmol/kg) [pg/mL] | IL-6 ([2]; 4 μmol/kg) [pg/mL] | also measured
1 | C=C1C(=O)O[C@@H]2[C@@H]3[C@]4(CC[C@@]3(C)O)C[C@]4(C)CC[C@@H]12 [Compound 1] | 31.46 | 108.48 | 21.33 | 71.95 | 1.64 | 175.10 | 2.62 | 8.02 | 1.32 | 99.99 | 1.72 | 3.98 | 20.17 | 1.36 | 2.76 | 1.42 | 1824.88 ± 32.73 | 2760.57 ± 288.02 | 945.66 ± 36.71 | 1314.91 ± 231.08 | Ngal mRNA expression ([1]; 0.4 μmol/kg): 30.52; Tgfb1 mRNA expression ([1]; 0.4 μmol/kg): 1.96; Tnf mRNA expression ([1]; 0.4 μmol/kg): 2.89; α-Sma mRNA expression ([1]; 0.4 μmol/kg): 1.82
2 | CN(C)C[C@@H]1C(=O)O[C@H]2[C@H]1CC[C@@]1(C)C[C@]13CC[C@@](C)(O)[C@H]23 [Compound 22] |  |  | 16.74 | 64.94 |  |  |  |  | 1.18 | 62.86 | 1.06 | 1.55 | 13.05 | 0.98 | 2.31 | 1.11 | 1570.02 ± 62.95 | 2348.32 ± 202.75 | 708.74 ± 38.40 | 1172.00 ± 240.50 | 
3 | CN(C)C[C@@H]1C(=O)O[C@H]2[C@H]1CC[C@@]1(C)C[C@]13CC[C@@](C)(O)[C@H]23 [Compound 23] | 30.08 | 90.69 | 18.95 | 50.39 | 1.58 | 170.08 | 2.07 | 6.47 | 1.20 | 83.11 | 1.45 | 5.61 | 13.08 | 1.09 | 2.42 | 0.90 | 1623.55 ± 32.64 | 2585.26 ± 273.50 | 888.28 ± 35.20 | 1288.32 ± 123.80 | Ngal mRNA expression ([1]; 0.4 μmol/kg): 25.75; Tgfb1 mRNA expression ([1]; 0.4 μmol/kg): 1.64; Tnf mRNA expression ([1]; 0.4 μmol/kg): 2.60; α-Sma mRNA expression ([1]; 0.4 μmol/kg): 1.80; Tumor growth inhibition (CT26 cells; 16.86 mg/kg/d i.g.): 43.36%; Tumor weight (CT26 cells; 16.86 mg/kg/d i.g.): 4.62 g
4 | C=C1C(=O)O[C@@H]2[C@H]3C(C)=CC[C@@]34O[C@@]4(C)CC[C@@H]12 [arglabin, reference compound] |  |  |  |  |  |  |  |  |  |  |  |  |  |  |  |  |  |  |  |  | Tumor growth inhibition (CT26 cells; 20 mg/kg/d i.g.): 34.94%; Tumor weight (CT26 cells; 20 mg/kg/d i.g.): 5.31 g
